Data published in patent CN116462616A, “炔酰胺类化合物及其应用” (Jinan University, priority 2022, dated 2023).

What was measured:
[1] = system: proteins of HepG2 cells [人源肝癌细胞HepG2]; test: Covalent modification of protein amino acid residues in tumour cells (live-cell labelling, gel fluorescence); type: cell-based, human; details: HepG2, 50 μM probe, 37 °C, 3 h
[2] = target: T1, bovine serum albumin [牛血清蛋白] (Bos taurus, UniProt P02769); test: Covalent modification of amino acid residues of a pure protein (gel fluorescence after click chemistry); type: binding; details: 10.0 μM probe, 1 mg/mL protein, 37 °C, 3 h
T1 sequence (P02769 25-607): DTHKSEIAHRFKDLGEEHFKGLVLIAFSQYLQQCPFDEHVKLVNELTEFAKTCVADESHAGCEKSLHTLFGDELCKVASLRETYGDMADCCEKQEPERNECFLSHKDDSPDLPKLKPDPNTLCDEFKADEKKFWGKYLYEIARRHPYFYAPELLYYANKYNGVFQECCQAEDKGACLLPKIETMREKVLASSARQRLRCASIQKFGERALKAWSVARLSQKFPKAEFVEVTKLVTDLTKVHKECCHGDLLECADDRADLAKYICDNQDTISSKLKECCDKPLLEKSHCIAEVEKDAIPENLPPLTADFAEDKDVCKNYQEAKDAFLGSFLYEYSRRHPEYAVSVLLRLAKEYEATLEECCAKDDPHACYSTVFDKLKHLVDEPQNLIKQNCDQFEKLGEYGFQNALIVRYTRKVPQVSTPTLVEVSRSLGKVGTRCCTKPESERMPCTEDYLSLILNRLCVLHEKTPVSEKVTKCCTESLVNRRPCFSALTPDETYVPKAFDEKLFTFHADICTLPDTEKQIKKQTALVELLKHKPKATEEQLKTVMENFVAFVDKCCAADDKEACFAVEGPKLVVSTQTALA

ALDH1 = target: T2, ALDH1 (Homo sapiens, UniProt P00352); test: Pull-down and western blot, ALDH1; type: binding; details: 50 μM, HepG2/H3255 cells, 37 °C, 5 h
T2 construct: 50μM分子探针YN-1和YN-4与HepG2/H3255细胞于37℃孵育5h; endogenous in cells; host or cells: HepG2/H3255
T2 sequence (P00352 1-501): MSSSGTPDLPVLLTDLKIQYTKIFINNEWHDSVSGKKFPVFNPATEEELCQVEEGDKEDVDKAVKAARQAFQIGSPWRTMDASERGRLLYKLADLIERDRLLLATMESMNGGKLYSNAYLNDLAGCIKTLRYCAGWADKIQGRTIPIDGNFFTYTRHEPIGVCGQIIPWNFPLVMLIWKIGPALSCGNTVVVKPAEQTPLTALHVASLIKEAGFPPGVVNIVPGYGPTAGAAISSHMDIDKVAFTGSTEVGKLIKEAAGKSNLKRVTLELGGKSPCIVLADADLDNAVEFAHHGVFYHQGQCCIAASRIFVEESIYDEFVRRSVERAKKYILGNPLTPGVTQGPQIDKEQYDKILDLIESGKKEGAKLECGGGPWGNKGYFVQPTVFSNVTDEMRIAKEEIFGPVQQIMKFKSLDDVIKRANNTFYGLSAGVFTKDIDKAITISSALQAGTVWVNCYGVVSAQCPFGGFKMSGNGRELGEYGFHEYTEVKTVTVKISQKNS

HepG2 cells [HepG2细胞] = test: Selective modification of acidic amino acid residues in cells (biological mass spectrometry); type: cell-based, human; details: 100 μM, 37 °C, 8 h
ECH1 = target: T3, ECH1 (Homo sapiens, UniProt Q13011); test: Pull-down and western blot, ECH1; type: binding; details: 50 μM, HepG2/H3255 cells, 37 °C, 5 h
T3 construct: 50μM分子探针YN-1和YN-4与HepG2/H3255细胞于37℃孵育5h; endogenous in cells; host or cells: HepG2/H3255
T3 sequence (Q13011 34-328): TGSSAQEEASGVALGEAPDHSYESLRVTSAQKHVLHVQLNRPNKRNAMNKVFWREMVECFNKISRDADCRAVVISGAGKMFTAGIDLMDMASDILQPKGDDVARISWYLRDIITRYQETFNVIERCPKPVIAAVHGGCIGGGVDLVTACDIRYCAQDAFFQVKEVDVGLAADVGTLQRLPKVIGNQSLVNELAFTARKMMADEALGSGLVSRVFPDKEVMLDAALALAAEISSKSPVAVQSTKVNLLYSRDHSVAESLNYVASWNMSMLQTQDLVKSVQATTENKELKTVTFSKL

MEK2 = target: T4, MEK2 (Homo sapiens, UniProt P36507); test: Pull-down and western blot, MEK2; type: binding; details: 50 μM, HepG2/H3255 cells, 37 °C, 5 h
T4 construct: 50μM分子探针YN-1和YN-4与HepG2/H3255细胞于37℃孵育5h; endogenous in cells; host or cells: HepG2/H3255
T4 sequence (P36507 whole entry): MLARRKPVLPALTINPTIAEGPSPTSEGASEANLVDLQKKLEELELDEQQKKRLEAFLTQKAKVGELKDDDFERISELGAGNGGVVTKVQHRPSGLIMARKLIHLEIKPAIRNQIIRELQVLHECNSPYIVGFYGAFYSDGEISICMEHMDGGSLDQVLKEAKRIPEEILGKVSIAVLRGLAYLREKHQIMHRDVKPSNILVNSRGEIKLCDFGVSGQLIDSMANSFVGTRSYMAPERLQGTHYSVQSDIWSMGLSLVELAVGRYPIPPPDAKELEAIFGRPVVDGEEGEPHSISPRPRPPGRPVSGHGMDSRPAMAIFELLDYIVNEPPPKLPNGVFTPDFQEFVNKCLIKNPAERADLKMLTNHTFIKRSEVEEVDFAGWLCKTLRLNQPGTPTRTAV

GAPDH = target: T5, GAPDH (Homo sapiens, UniProt P04406); test: Pull-down and western blot, GAPDH; type: binding; details: 50 μM, HepG2/H3255 cells, 37 °C, 5 h
T5 construct: 50μM分子探针YN-1和YN-4与HepG2/H3255细胞于37℃孵育5h; endogenous in cells; host or cells: HepG2/H3255
T5 sequence (P04406 whole entry): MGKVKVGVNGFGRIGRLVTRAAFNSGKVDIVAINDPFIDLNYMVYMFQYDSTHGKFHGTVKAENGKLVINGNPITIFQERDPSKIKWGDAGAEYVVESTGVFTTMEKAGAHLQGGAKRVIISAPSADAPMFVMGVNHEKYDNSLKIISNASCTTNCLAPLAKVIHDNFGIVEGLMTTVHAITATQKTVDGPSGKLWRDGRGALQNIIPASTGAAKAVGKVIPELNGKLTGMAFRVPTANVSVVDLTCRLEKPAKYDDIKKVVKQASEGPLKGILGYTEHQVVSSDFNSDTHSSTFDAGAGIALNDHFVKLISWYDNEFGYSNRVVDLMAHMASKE

[3] = target: T1, bovine serum albumin [牛血清蛋白]; test: Selective modification of acidic amino acid residues of a pure protein (biological mass spectrometry); type: binding; details: 100 μM, 37 °C, 0.5 h

Row | covalent labelling of bovine serum albumin [2] | targeted binding to ALDH1 (ALDH1) | targeted binding to ECH1 (ECH1) | targeted binding to MEK2 (MEK2) | targeted binding to GAPDH (GAPDH) | selective modification of acidic amino acid residues (aspartic acid and glutamic acid) [3] | SMILES | covalent labelling of proteins at live-cell level [1] | selective modification of acidic amino acid residues (aspartic acid and glutamic acid) (HepG2 cells [HepG2细胞])
1 | 能够共价标记牛血清蛋白 | – | – | – | – | – | C#Cc1ccc(OCc2ccc(S(=O)(=O)N(C)C#C)cc2)cc1 [YN-3] | 能够在活细胞水平共价标记蛋白 | –
2 | 能够共价标记牛血清蛋白 | 能靶向结合 | 能靶向结合 | 能靶向结合 | 能靶向结合 | 可选择性修饰酸性氨基酸残基天冬氨酸残基及谷氨酸残基 | C#Cc1ccc(S(=O)(=O)N(C)C#C)cc1 [YN-1] | 能够在活细胞水平共价标记蛋白 | 可选择性修饰酸性氨基酸残基天冬氨酸残基及谷氨酸残基
3 | 能够共价标记牛血清蛋白 | – | – | – | – | – | C#Cc1ccc(C#CN(C)S(=O)(=O)c2ccc(C)cc2)cc1 [YN-2] | 能够在活细胞水平共价标记蛋白 | –
